The subject of one data set is Arabidopsis thaliana. The data set is described as follows: Arabidopsis seedling root architecture screen on vertical agar plates. In kind it is in vivo. Conditions: for lateral root initiation (effect of treatment) / primary root growth (effect of treatment): 6 days of treatment, concentrations tested. An excerpt:
An initial dose-responded for Arabidopsis seeding growth across multiple orders of magnitude in concentration is developed, and then examined sub-lethal concentrations in greater detail. Plants are germinated and grown vertically on transparent agar plates until the emergence of the first set of true leaves (6-8 days), transferred to fresh plates with or without the compound of interest, and imaged at 0 and 6 days after transfer. Finally, a semi-automated image analysis method is used to score primary root growth and total lateral root number, common phenotypes in plant developmental biology (Lobet, Pagès, and Draye 2011).
Arabidopsis ecotype Col-0 seeds are obtained from the Arabidopsis Biological Resource Center (ABRC). Seeds are surface sterilized by a brief wash in 70% (v/v) ethanol followed by incubation in 30% (v/v) sodium hypochlorite (commercial bleach) for 15 minutes. Seeds are subsequently rinsed 5 times in sterile water, and sown on ½ Murashige and Skoog (MS) agar. Seeds are stratified (2 days, 4° C. in the dark) before transfer to a growth chamber under a 10 h light:14 h dark (22° C.). Following germination, plants are grown until the appearance of the first set of true leaves (˜6 days) prior to transfer to fresh test or control agar. […] The change in root length is determined from the primary root length at transfer subtracted from the primary root length after 6 days of treatment.
(§1) Rhizobacterial biomass for root inoculation experiments is generated by cultivating individual isolates at 30° C. in LB supplemented with 1% (w/v) dextrose, shaking at 200 RPM. Overnight cultures are diluted to an OD600 of 0.1 in fresh media then grown under the same conditions to an OD600 of 0.7. Pellets are centrifuged (2000 r.c.f.) for 10 min at room temperature, then resuspended in 1/10 volume sterile water. Plants are inoculated by momentarily submerging their roots into cell resuspensions, or in sterile water for mock-inoculated controls. Plants are transferred to fresh ½ MS agar plates immediately post-inoculation and grown as before.
(§2) D-limonene, α-pinene, protocatechuate, p-coumarate, [C2C1im][OAc], or [Ch][Lys] are dissolved in molten ½ MS media where indicated. 1.2 M stock solutions of p-coumarate and 1.5 M stock solutions of protocatechuate are prepared in dimethylsulfoxide (DMSO) and ethanol, respectively, before their addition to growth media.
(§3) Plants are lit from the sides and photographed using a Canon 550D camera; images are saved as JPEG files for further analysis. The contrast is adjusted to maximize root visibility, but any adjustments are applied uniformly. Root growth is quantified using ImageJ (Schneider, Rasband, and Eliceiri 2012) with the SmartRoot plugin using default parameters (Lobet, Pages, and Draye 2011).

The test system of the next data set is A. rhizogenes. The data set is described as follows: Microbial growth in liquid culture (A. rhizogenes). Type of data set: cell-based. Conditions: for microbial growth with the compound as sole carbon source: M9 minimal media. How it is done:
(§4) Whether inoculation with rhizobacteria alters the effect of the test compounds on plant growth is next tested. Two microbes, A. rhizogenes and Acinetobacter sp.
Whether either [Ch][Lys] or [C2C1im][OAc] has an effect on A. rhizogenes is tested by growing a liquid culture in minimal media (M9, which contains only salts and nitrogen) supplemented with either 0.1 mM [Ch][Lys], 1 mM [C2C1im][OAc], or 1% w/v dextrose as the sole carbon source is tested.
Choline, for instance, can be used as a precursor to the compatible solute glycine betaine in a process dependent on two genes, betA and betB, both of which are present in the A. rhizogenes genome (Levy et al. 2018). Glycine betaine is additionally known to improve the salt tolerance of both plants and microbes (Riou and Le Rudulier 1990; Hayashi et al. 1997). Therefore, whether [Ch][Lys] improves the salt tolerance of A. rhizogenes by growing the microbe in M9 supplemented with 1% w/v dextrose and either 0.1 mM [Ch][Lys], 400 mM NaCl, or both, is tested.
(§5) Microbial strains are maintained in glycerol stocks stored at −80° C. Media used are Lysogeny broth (LB: 10 g/L tryptone, 5 g/L yeast extract, and 5 g/L NaCl) or M9 minimal media (M9: 6.8 g/L Na2HPO4, 3 g/L KH2PO4, 1 g/L NH4Cl, 0.5 g/L NaCl, 0.12 g/L MgSO4) as indicated. Liquid pre-cultures are inoculated with colonies from LB agar plates and grown overnight at 30° C., shaking at 200 RPM. Precultures are back-diluted to an OD600 0.1 into fresh media and grown until OD600 0.6, and then 2 μL per well is used to inoculate 96 well microtiter plates in a total volume of 100 μL of the media and treatment conditions indicated. Optical density is tracked at a wavelength of 600 nm using a Synergy 4 plate reader (BioTek Instruments) kept at 30° C. and shaking on “high” setting.

The test system of the next data set is Acinetobacter sp. 01. The data set is described as follows: Microbial growth in liquid culture (Acinetobacter sp. 01). Type of data set: cell-based. How it is done: as §4, §5
The test system of the next data set is Sorghum bicolor. The data set is described as follows: Sorghum seedling root growth on vertical agar plates. In kind it is in vivo. To be noted: for effect on seedlings transferred to solid media: similar results as Arabidopsis; for mean crown root growth / mean lateral root growth: 5 mM [Ch][Lys], 8 days.
Source text: Arabidopsis is useful as a model system because of its fast generation time, ease of handling, and the availability of relevant genetic tools. The effects of these treatments on a second plant species of economic relevance are compared. Sorghum is selected, since it is both evolutionarily distant from Arabidopsis, but also an agronomically important plant for food, forage, and biomass, and is cultivated over 3,300,000 ha in the United States and 40,000,000 ha globally (Langholtz, Stokes B. J., and Eaton 2016).
Sorghum cultivar BTx623 seeds are a kind gift from Dr. Jeff Dahlberg, UCANR. Seeds are surface sterilized by rinsing 5 times in sterile water, briefly washing in 70% (v/v) ethanol+0.01% (v/v) Triton-X 100 and incubating in bleach+0.01% (v/v) Triton-X 100 on a shaker for 20 minutes. They are then rinsed in sterile water a further 3 times, sown on plates, and grown as above (although without stratification).
as §1, §2, §3

For another data set, the system named is Arabidopsis roots. To be noted: 0.1 mM. The protocol:
FIG. 4G. […] Representative fluorescent microscopy images of Arabidopsis roots following propidium iodide staining. I: Control; II: 0.1 mM [Ch][Lys]; III: inoculation with A. rhizogenes; IV: 0.1 mM [Ch][Lys] and A. rhizogenes. The scale bar=200 μm.
Seedlings are inoculated or chemically treated as previously described. After the treatment period roots are gently washed in sterile water and the cell walls are stained for 1 min in […] propidium iodide (PI, Sigma), then briefly rinsed in sterile water. Cellular morphology is determined using a Zeiss LSM 710 confocal microscope with PI fluorescence emission at 550-680 nm and 488 nm excitation.

For data set [1], the system named is mammals, fish, and microbes. Conditions: reported (Sun et al. 2014); cited from earlier work.
[2] abbreviates: 1 mM protocatechuate, inoculated with A. rhizogenes.
The mark [3] stands for this setting: 1 mM protocatechuate, uninoculated.
Setting [4] is: 0.1 mM [Ch][Lys], inoculated with A. rhizogenes, 6 days.
[5] abbreviates: 0.1 mM [Ch][Lys], uninoculated, 6 days.

Entries after “also recorded” stand apart in the source; their conditions may differ.

Consider `C=C(C)C1CC=C(C)CC1` [D-limonene], for which the “plants showing complete inhibition of primary root growth” value in the data set on Arabidopsis thaliana (regardless of the concentration tested) is recorded as “at least 20%”. In the data set with Arabidopsis thaliana (uninoculated, 6 days), the lateral root growth result is given as “unaffected”. The “changes in root architecture / dose-response” value with Arabidopsis thaliana (uninoculated, between and within plates) is on record as “inconsistent changes in root architecture; also recorded: no dose-response relationship was obvious”.

Turning to `[Cl-].[Na+]` [NaCl, reference compound], in the data set with A. rhizogenes (M9 + 1% w/v dextrose, 400 mM NaCl), the “A. rhizogenes growth rate” value was “reduces the A. rhizogenes growth rate”.

For `CCn1cc[n+](C)c1` [[C2C1im][OAc], 1-ethyl-3-methylimidazolium acetate], the “effect on growth of the microbe” value with Acinetobacter sp. 01 (1 mM) and in the data set on A. rhizogenes (1 mM) was “does not alter the growth” each time. The “microbial growth with the compound as sole carbon source” value in the data set with A. rhizogenes (1 mM [C2C1im][OAc]) is listed as “Neither IL allows microbial growth”. Further, the “lateral root initiation, effect of inoculation” value with Arabidopsis thaliana (1 mM [C2C1im][OAc], inoculated with A. rhizogenes) was “no effect”. In addition, the “mean primary root growth” value in the data set on Arabidopsis thaliana (1 mM [C2C1im][OAc], inoculated with A. rhizogenes, 6 days) is on record as 2.912 cm; in the data set with Arabidopsis thaliana (1 mM [C2C1im][OAc], inoculated with Acinetobacter sp. 01, 6 days), 4.011 cm; in the data set with Arabidopsis thaliana (1 mM [C2C1im][OAc], uninoculated, 6 days), 1.904 cm. The root growth entry with Arabidopsis thaliana (1 mM, uninoculated) is listed as “overall reduction in root growth”. The “lateral root initiation (effect of treatment)” value in the data set with Arabidopsis thaliana (uninoculated) was “dose dependent reduction”. Also, the “primary root growth (effect of treatment)” value in the data set on Arabidopsis thaliana (uninoculated) is recorded as “dose dependent reduction”.

On to `O=C(O)/C=C/c1ccc(O)cc1` [p-coumarate], for which, in the data set on Arabidopsis thaliana (uninoculated), the “lateral root initiation (effect of treatment)” value is on record as “dose dependent reduction” and the “primary root growth (effect of treatment)” value is listed as “dose dependent reduction”.

For the compound `O=C(O)c1ccc(O)c(O)c1` [protocatechuate], the “primary root curvature, median skew to the right from that of untreated plants” value in the data set on Arabidopsis thaliana (1 mM) was found to be 200. Moreover, in the data set on Arabidopsis thaliana (setting [2]), the “mean lateral root number (lateral root initiation)” value (“mean lateral root number” below) is 2.214 and the “mean primary root growth” value worked out at 0.631 cm. In the data set on Arabidopsis thaliana (setting [3]), the “mean lateral root number” value was 7.989 and the “mean primary root growth” value is given as 2.293 cm. In addition, the lateral root initiation entry with Arabidopsis thaliana (1 mM, uninoculated, 6 days) is recorded as “increase lateral root initiation”. For the same compound, the lateral root growth result in the data set with Arabidopsis thaliana (uninoculated, 6 days) was “enhanced”. In the data set on Arabidopsis thaliana (uninoculated), the “primary root growth (effect of treatment)” value is “reduce primary root growth at all concentrations tested”.

`CC1=CCC2CC1C2(C)C` (stereo not drawn) [α-pinene]: in the data set on Arabidopsis thaliana (uninoculated), the “lateral root initiation (effect of treatment)” value is “dose dependent reduction” and the “primary root growth (effect of treatment)” value is on record as “dose dependent reduction”.

As to cholinium lysinate [[Ch][Lys]], the “concentration tolerated by the microbe” value in the data set with Acinetobacter sp. 01 (Acinetobacter sp. 01) and with A. rhizogenes (A. rhizogenes) was 10 mM each time. Besides, the “A. rhizogenes growth rate under NaCl” value in the data set on A. rhizogenes (M9 + 1% w/v dextrose, 400 mM NaCl plus 0.1 mM [Ch][Lys]) was “partially rescued”. The “microbial growth with the compound as sole carbon source” value in the data set on A. rhizogenes (0.1 mM [Ch][Lys]) was “Neither IL allows microbial growth”. The “effect on seedlings transferred to solid media” value is “reduced root growth” in the data set with Sorghum bicolor (0.1 mM); “complete chlorosis and plant death” with Sorghum bicolor (5 mM); “reduced root growth” in the data set with Arabidopsis thaliana (0.1 mM); “complete chlorosis and plant death” with Arabidopsis thaliana (5 mM). For the same compound, the “mean crown root growth” value came to 5.028 cm in the data set on Sorghum bicolor (inoculated with A. rhizogenes) and 3.267 cm in the data set with Sorghum bicolor (uninoculated). Further, the “mean lateral root growth” value in the data set with Sorghum bicolor (inoculated with A. rhizogenes) is listed as 1.051 cm; in the data set with Sorghum bicolor (uninoculated), 0.464 cm. For the same compound, the “branching lateral roots and crown root growth” value with Sorghum bicolor (5 mM, over 8 days) was “almost completely inhibit”. In addition, the “concentration that reduces the root growth” value with Sorghum bicolor (S. bicolor) was “At least 5 mM”; with Arabidopsis thaliana (A. thaliana), “At least 0.1 mM”. The “mean lateral root number” value is on record as 4.889 in the data set on Arabidopsis thaliana (setting [4]) and 7.069 with Arabidopsis thaliana (setting [5]). Moreover, the “mean primary root growth” value in the data set with Arabidopsis thaliana (setting [4]) came out at 2.241 cm; in the data set on Arabidopsis thaliana (0.1 mM [Ch][Lys], inoculated with Pool B), 2.072 cm; in the data set with Arabidopsis thaliana (setting [5]), 0.858 cm. Also, in the data set on Arabidopsis thaliana (0.1 mM [Ch][Lys], inoculated with Pool A), the “root growth versus uninoculated, [Ch][Lys]-treated controls” value is reported as “do not differ significantly”. In addition, the primary root growth result in the data set on Arabidopsis thaliana (0.1 mM, uninoculated) was “significantly inhibit”. Besides, the lateral root initiation entry with Arabidopsis thaliana (0.1 mM, uninoculated, 6 days) is given as “increase lateral root initiation”. Besides, the “concentration sufficient to completely inhibit primary root growth” value with Arabidopsis thaliana (Arabidopsis) came out at 0.1 mM. Also, the “root growth, effect of inoculation” value with Arabidopsis thaliana ([Ch][Lys] treatment, inoculated with Acinetobacter sp. 01) is listed as “no significant effect”. Moreover, in the data set on Arabidopsis thaliana (equates to 0.1 mM), the “application rate equivalent to the concentration that inhibits primary root growth” value is given as 104 g/ha2. Also, the “estimated appropriate application rate as herbicide” value in the data set with Arabidopsis thaliana (estimate) is 100-500 g/ha. Moreover, the “primary root growth (effect of treatment)” value in the data set on Arabidopsis thaliana (uninoculated) is on record as “reduce primary root growth at all concentrations tested”. In the data set on Arabidopsis roots (A. rhizogenes treated roots), the “root cell morphology phenotype caused by [Ch][Lys]” value is given as “abolished”. Further, the root cell morphology result in the data set on Arabidopsis roots (uninoculated) is “irregular expansion of epidermal cells of the root apical meristem (RAM) and stimulates formation of ectopic root hairs”. Besides, the “toxicity to mammals, fish, and microbes” value in data set [1] is given as “low toxicity”.

These data come from patent US11160277B2, “Use of cholinium lysinate as an herbicide” (priority 2019, dated 2021).
